From patent US20260176267A1, “PREPARATION OF IMIDAZOPYRIDINE AND IMIDAZOPYRIDAZINE DERIVATIVES AS NOVEL DIACYLGLYCERIDE O-ACYLTRANSFERASE 2 INHIBITORS” (Merck Sharp & Dohme LLC, priority 2022, published 2026)

Biological target: T1, human DGAT2 (hDGAT2) (Homo sapiens, UniProt Q96PD7)
T1 construct: made in house; host or cells: Sf-9 insect cells (baculovirus), membrane fraction
T1 sequence (Q96PD7 1-388): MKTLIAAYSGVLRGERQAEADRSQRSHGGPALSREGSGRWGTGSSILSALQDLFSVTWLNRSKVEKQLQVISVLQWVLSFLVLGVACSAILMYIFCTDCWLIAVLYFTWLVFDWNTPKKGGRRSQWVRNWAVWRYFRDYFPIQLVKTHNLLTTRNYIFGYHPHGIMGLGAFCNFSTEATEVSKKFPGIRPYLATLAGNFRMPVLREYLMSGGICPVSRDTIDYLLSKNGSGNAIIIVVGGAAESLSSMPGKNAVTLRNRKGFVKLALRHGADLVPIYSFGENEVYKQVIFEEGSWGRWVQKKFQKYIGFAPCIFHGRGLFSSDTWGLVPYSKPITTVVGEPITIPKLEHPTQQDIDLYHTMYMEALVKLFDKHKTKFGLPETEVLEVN
Assay: DGAT2 Enzymatic Activity Assay
Format: biochemical
Details: membrane prep of Sf-9 cells expressing hDGAT2; 13C18-triolein product by LC/MS/MS; 25 μM diolein, 5 μM 13C oleoyl-CoA, rt
Method: Sf-9 insect cells were maintained in Grace's insect cell culture medium with 10% heated-inactivated fetal bovine serum, 1% Pluronic F-68 and 0.14 μg/ml Kanamycine sulfate at 27° C. in a shaker incubator. After infection with untagged baculovirus expressing human DGAT2 (hDGAT2) at multiplicity of infection (MOI) 3 for 48 hours, cells were harvested. Cell pellets were suspended in buffer containing 10 mM Tris-HCl pH 7.5, 1 mM EDTA, 250 mM sucrose and Complete Protease Inhibitor Cocktail (Sigma Aldrich), and sonicated on ice. Cell debris were removed by centrifugation at 2000×g for 15 minutes. Membrane fractions were isolated by ultracentrifugation (100,000×g), resuspended in the same buffer, and frozen (−80° C.) for later use. The protein concentration was determined with the Pierce™ BCA Protein Assay Kit (Thermo Fisher Scientific).
LC/MS/MS analyses were performed using Thermal Fisher's LX4-TSQ Vantage system. This system consists of an Agilent binary high-performance liquid chromatography (HPLC) pump and a TSQ Vantage triple quadrupole MS/MS instrument. For each sample, 2 μL samples from the top organic layer of in-plate liquid-liquid extraction were injected onto a Thermo Betabasic C4 column (2.1 mm×20 mm, 5 μm particle size). The samples were then eluted using the following conditions; mobile phase: Isopropanol:acetonitrile/10 mM ammonium formate=50/35/15 (v/v/v), flow rate: 0.8 mL/min, temperature: 25° C. Data was acquired in positive mode using a heated electrospray ionization (HESI) interface. The operational parameters for the TSQ Vantage MS/MS instrument were a spray voltage of 3000 V, capillary temperature of 280° C., vaporizer temperature 400° C., sheath gas 45 arbitrary unit. Aux gas 10 arbitrary units. […] The peak area was integrated by Xcalibur Quan software. The ratio between the ^13C18 triolein generated in the reaction and spiked in internal standard ^13C21-triolein was used to generate percentage inhibition and IC50 values. Compound percentage inhibition was calculated by the following formula: Inhibition %=1−[(compound response−low control)/(high control−low control)]×100%.
DGAT2 activity was determined by measuring the amount of enzymatic product ^13C18-triolein (^13C-1,2,3-Tri(cis-9-octadecenoyl)glycerol) using the membrane prep mentioned above. The assay was carried out in ABgene 384-well assay plates in a final volume of 25 μL at rt.

SMILES	IC50 [nM]
CCOc1cccnc1Oc1ccc2nc(C(=O)N[C@H]3CCOC3)cn2c1 [Example 52, 6-[(3-ethoxy-2-pyridyl)oxy]-N-[(3S)-tetrahydrofuran-3-yl]imidazo[1,2-a]pyridine-2-carboxamide]	814
CC1(NC(=O)c2nc3ccc(Oc4ncccc4OCC(F)(F)F)cn3c2C(F)(F)F)CCS(=O)(=O)CC1 [Example 136, N-(4-methyl-1,1-dioxo-thian-4-yl)-6-[[3-(2,2,2-trifluoroethoxy)-2-pyridyl]oxy]-3-(trifluoromethyl)imidazo[1,2-a]pyridine-2-carboxamide]	146
CCOc1cccnc1Oc1ccc2nc(C(=O)Nc3ccccc3)cn2c1 [Example 45, 6-[(3-ethoxy-2-pyridyl)oxy]-N-phenyl-imidazo[1,2-a]pyridine-2-carboxamide;2,2,2-trifluoroacetate]	168
Cc1c(C(=O)NC2(C)CCS(=O)(=O)CC2)nc2ccc(OCc3ccccc3OC(F)F)cn12 [Example 127, 6-[[2-(difluoromethoxy)phenyl]methoxy]-3-methyl-N-(4-methyl-1,1-dioxo-thian-4-yl)imidazo[1,2-a]pyridine-2-carboxamide]	6.5
CC1(NC(=O)c2cn3cc(Oc4ncccc4OCC(F)(F)F)ccc3n2)CCS(=O)(=O)CC1 [Example 14, N-(4-methyl-1,1-dioxo-thian-4-yl)-6-[[3-(2,2,2-trifluoroethoxy)-2-pyridyl]oxy]imidazo[1,2-a]pyridine-2-carboxamide]	5.3
CC1(NC(=O)c2cn3cc(Oc4ncccc4OCC(F)(F)F)cc(C(F)(F)F)c3n2)CCS(=O)(=O)CC1 [Example 56, N-(4-methyl-1,1-dioxo-thian-4-yl)-6-[[3-(2,2,2-trifluoroethoxy)-2-pyridyl]oxy]-8-(trifluoromethyl)imidazo[1,2-a]pyridine-2-carboxamide]	> 9990
CC1(NC(=O)c2nc3ccc(Oc4ncc(Cl)cc4OCC(F)F)nn3c2Cl)CS(=O)(=O)C1 [Example 176, 3-chloro-6-[[5-chloro-3-(2,2-difluoroethoxy)-2-pyridyl]oxy]-N-(3-methyl-1,1-dioxo-thietan-3-yl)imidazo[1,2-b]pyridazine-2-carboxamide]	24
CCOc1cccnc1Oc1ccc2nc(C(=O)Nc3ccc(C)nn3)cn2c1 [Example 57, 6-[(3-ethoxy-2-pyridyl)oxy]-N-(6-methylpyridazin-3-yl)imidazo[1,2-a]pyridine-2-carboxamide]	1110
Cc1c(C(=O)NC2CC(C(F)(F)F)C2)nc2ccc(Oc3ncc(F)cc3OCC(F)F)cn12 (stereo not shown) [Example 97, 6-[[3-(2,2-difluoroethoxy)-5-fluoro-2-pyridyl]oxy]-3-methyl-N-[3-(trifluoromethyl)cyclobutyl] imidazo[1,2-a]pyridine-2-carboxamide]	4
CC1(NC(=O)c2cn3c(F)c(Oc4ncccc4OCC(F)(F)F)ccc3n2)CCS(=O)(=O)CC1 [Example 39, 5-fluoro-N-(4-methyl-1,1-dioxo-thian-4-yl)-6-[[3-(2,2,2-trifluoroethoxy)-2-pyridyl]oxy]imidazo[1,2-a]pyridine-2-carboxamide]	74
CC1(NC(=O)c2nc3ccc(Oc4nccnc4OCC(F)(F)F)nn3c2Cl)CCS(=O)(=O)CC1 [Example 178, 3-chloro-N-(4-methyl-1,1-dioxo-thian-4-yl)-6-[3-(2,2,2-trifluoroethoxy)pyrazin-2-yl]oxy-imidazo[1,2-b]pyridazine-2-carboxamide]	4000
Cc1cc2nc(C(=O)NC3(C)CS(=O)(=O)C3)cn2nc1Oc1ncc(Cl)cc1OCC(F)F [Example 169, 6-[[5-chloro-3-(2,2-difluoroethoxy)-2-pyridyl]oxy]-7-methyl-N-(3-methyl-1,1-dioxo-thietan-3-yl)imidazo[1,2-b]pyridazine-2-carboxamide]	121
Cc1c(C(=O)NC2(CC(F)(F)F)CCS(=O)(=O)CC2)nc2ccc(Oc3ncc(F)cc3OCC(F)F)cn12 [Example 62, 6-[[3-(2,2-difluoroethoxy)-5-fluoro-2-pyridyl]oxy]-N-[1,1-dioxo-4-(2,2,2-trifluoroethyl)thian-4-yl]-3-methyl-imidazo[1,2-a]pyridine-2-carboxamide]	1.5
CCC1(NC(=O)c2nc3ccc(Oc4ncc(F)cc4OCC(F)F)cn3c2C)CS(=O)(=O)C1 [Example 70, 6-[[3-(2,2-difluoroethoxy)-5-fluoro-2-pyridyl]oxy]-N-(3-ethyl-1,1-dioxo-thietan-3-yl)-3-methyl-imidazo[1,2-a]pyridine-2-carboxamide]	74.3
CCOc1cc(Cl)cnc1Oc1ccc2nc(C(=O)NC3(C)CS(=O)(=O)C3)c(C)n2c1 [Example 69, 6-[(5-chloro-3-ethoxy-2-pyridyl)oxy]-3-methyl-N-(3-methyl-1,1-dioxo-thietan-3-yl)imidazo[1,2-a]pyridine-2-carboxamide]	2
Cc1cc2nc(C(=O)NC3(C)CC(F)(F)C3)cn2cc1Oc1ncc(F)cc1OCC(F)F [Example 25, 6-[[3-(2,2-difluoroethoxy)-5-fluoro-2-pyridyl]oxy]-N-(3,3-difluoro-1-methyl-cyclobutyl)-7-methyl-imidazo[1,2-a]pyridine-2-carboxamide]	3.8
Cc1c(C(=O)NC2(C)CCS(=O)(=O)C(C)(C)C2)nc2ccc(Oc3ncc(F)cc3OCC(F)F)cn12 (stereo not shown) [Example 64]	1.7
Cc1ccc(OCC(F)(F)F)c(Oc2ccc3nc(C(=O)NC4(C)CCS(=O)(=O)CC4)c(C)n3c2)n1 [Example 111]	298
CC(C)c1cc2nc(C(=O)NC3(C)CCS(=O)(=O)CC3)cn2cc1Oc1ncc(Cl)cc1OCC(F)(F)F [Example 43, 6-[[5-chloro-3-(2,2,2-trifluoroethoxy)-2-pyridyl]oxy]-7-isopropyl-N-(4-methyl-1,1-dioxo-thian-4-yl)imidazo[1,2-a]pyridine-2-carboxamide]	122
Cc1c(C(=O)NC2(C)CCS(=O)(=O)CC2)nc2ccc(Oc3nccc(Cl)c3OCC(F)(F)F)cn12 [Example 109, 6-[[4-chloro-3-(2,2,2-trifluoroethoxy)-2-pyridyl]oxy]-3-methyl-N-(4-methyl-1,1-dioxo-thian-4-yl)imidazo[1,2-a]pyridine-2-carboxamide]	224
CCC1(NC(=O)c2nc3ccc(Oc4ncc(F)cc4OCC(F)(F)F)cn3c2C)CCS(=O)(=O)CC1 [Example 77, N-(4-ethyl-1,1-dioxo-thian-4-yl)-6-[[5-fluoro-3-(2,2,2-trifluoroethoxy)-2-pyridyl]oxy]-3-methyl-imidazo[1,2-a]pyridine-2-carboxamide]	33
O=C(NC1(CC(F)(F)F)CCS(=O)(=O)CC1)c1cn2cc(Oc3ncc(Cl)cc3OCC(F)(F)F)ccc2n1 [Example 5, 6-[[5-chloro-3-(2,2,2-trifluoroethoxy)-2-pyridyl]oxy]-N-[1,1-dioxo-4-(2,2,2-trifluoroethyl)thian-4-yl]imidazo[1,2-a]pyridine-2-carboxamide]	36
CC1(NC(=O)c2cn3nc(OCc4c(F)cccc4OC(F)F)ccc3n2)CCS(=O)(=O)CC1 [Example 181, 6-[[2-(Difluoromethoxy)-6-fluoro-phenyl]methoxy]-N-(4-methyl-1,1-dioxo-thian-4-yl)imidazo[1,2-b]pyridazine-2-carboxamide]	25
CS(=O)(=O)CC1(NC(=O)c2cn3nc(Oc4ncc(Cl)cc4OCC(F)F)ccc3n2)CCC1 [Example 163, 6-[[5-Chloro-3-(2,2-difluoroethoxy)-2-pyridyl]oxy]-N-[1-(methylsulfonylmethyl)cyclobutyl] imidazo[1,2-b]pyridazine-2-carboxamide]	207
Cc1c(C(=O)NC2(C)CCS(=O)(=O)CC2)nc2ccc(Oc3ncc(O)cc3OCC(F)(F)F)cn12 [Example 148, 6-[[5-hydroxy-3-(2,2,2-trifluoroethoxy)-2-pyridyl]oxy]-3-methyl-N-(4-methyl-1,1-dioxo-thian-4-yl)imidazo[1,2-a]pyridine-2-carboxamide]	80
